Laboratory results reported in paper PMC6385087, “New Multitarget Hybrids Bearing Tacrine and Phenylbenzothiazole Motifs as Potential Drug Candidates for Alzheimer’s Disease” (Molecules, 2019).

Tests used:
Aβ1–42 self-aggregation = molecular target: T1, Aβ1–42 self-aggregation (Homo sapiens, UniProt P05067); test: Aβ1–42 self-aggregation inhibition, thioflavin T fluorescence assay; format: biochemical; settings: self-mediated Aβ42 aggregation, ThT fluorescence, CL = 40 μM, means of two experiments; for inhibition at 40 µM: read-out: Inhibition of Aβ-self-aggregation (%)
T1 construct: Commercially available Aβ1-42 peptide was obtained from Aldrich; purchased Aldrich
Experimental: […]. Since the compounds of this series presented some solubility problems in methanol, the assays were performed with ligands at concentrations of 40 µM, i.e., half of the concentration usually used (80 µM) in these assays. […]. […] So, it appears that introduction of a chloro substituent in TAC and/or a hydroxyl group in the carbon linker are not well suited for the interaction with β-sheet secondary structure of Aβ aggregates. […].
Commercially available Aβ1-42 peptide was obtained from Aldrich and stored at −20 °C. It was treated with 1,1,1,3,3,3-hexafluoropropan-2-ol (HFIP) to avoid self-aggregation and reserved. HFIP pre-treated Aβ1–42 samples were re-dissolved in CH3CN/Na2CO3 (300 µM)/NaOH (250 µM) (48.3:48.3:4.3, v/v/v) solvent mixture in order to have a stable stock solution; this solution (500 µM) was further diluted in phosphate buffer (0.215 M, pH 8.0) to obtain 40 µM solution. The ligand, which was previously dissolved in methanol, was further diluted in phosphate buffer to a final concentration of 40 µM. Aβ1–42 aggregation was determined by measuring the fluorescence emission of Thioflavin T dye, with a Cary Eclipse Varian fluorimeter (Molecular Devices, San José, CA, USA).
After incubation for 24 h at 37 °C, without stirring, the samples were added to a 96-well plate (BD Falcon) with 180 µL of 5 µM ThT in 50 mM glycine-NaOH (pH 8.5) buffer. Blank samples were prepared for each concentration in a similar way, devoid of peptide. As for the control, a sample of the peptide was incubated under identical conditions but without the inhibitor. After 5-min incubation with the dye, the ThT fluorescence was measured at the following wavelengths: 446 nm (excitation) and 486 nm (emission). The percent inhibition of the self-induced aggregation due to the presence of the test compound was calculated by Equation (2), in which IFi and IF0 corresponded to the fluorescence intensities, in the presence and the absence of the test compound, minus the fluorescence intensities due to the respective blanks. I% = 100 − (IFi/IF0 × 100)(2)
The reported values were obtained as the mean ± S.E.M. of two different experiments.

SH-SY5Y cells = test: Dose-response screening for non-toxic concentration, MTT reduction; format: cell-based; settings: dose-response screening from 0.2 μM to 5 μM, 25 h
Experimental: The neuroprotective effect of TAC-PhBTA conjugates was evaluated using SH-SY5Y cells treated with Aβ1–42 peptides or ascorbate/iron. For each compound, a dose-response curve was performed to select a non-toxic concentration in order to analyze its neuroprotective effect (Figure 3).
SH-SY5Y human neuroblastoma cell line (ATCC-CRL-2266) grown in Dulbecco’s modified Eagle’s medium (DMEM) obtained from Gibco-Invitrogen (Life Technologies Ltd., Liverpool, UK) with 10% heat inactivated fetal calf serum, containing 50 U/mL penicillin, and 50 μg/mL streptomycin, under a humidified atmosphere of 95% air-5% CO2 at 37 °C. Cells were plated at 0.12 × 10^6 cells/mL for cell viability assay. […]. As a result we selected a 2.5 μM final concentration for compound 16; 0.5 μM final concentration for compound 17; 0.2 μM final concentration for compounds 14 and 15; and a 1 μM final concentration for compounds 19 and 18. […] The compounds were added to the cell media 1 h before the incubation with Aβ1–42 or ferrous sulfate/L-ascorbic acid. Aβ1–42 or ferrous sulfate/L-ascorbic acid where incubated alone or with the compound for an additional 24 h. Aβ1–42 was prepared as 276.9 μM stock in sterile water and added to the medium at 1 μM final concentration. Ferrous sulfate was freshly prepared as 0.36 M stock in water and added to the medium at 500 μM final concentration. L-Ascorbic Acid was freshly prepared as 80 mM stock in water and added to the medium at 5 mM final concentration. Aβ1–42 was purchased from Bachem (Torrance, CA, USA) and ferrous sulfate and L-ascorbic acid from Sigma Chemical Co (St. Louis, MO, USA).
Cell viability was determined by a MTT (3-(4,5-dimethylthiazol-2-yl)-2,5-diphenyltetrazolium bromide) reduction test. In viable cells, the enzyme succinate dehydrogenase metabolizes MTT into formazan that absorbs light at 570 nm. Following the cell treatment protocol the medium was aspirated and 0.5 mL MTT (0.5 mg/mL) was added to each well. The plate was then incubated at 37 °C for 1 h 30 min protected from light. At the end of the incubation period the formazan precipitates were solubilized with 0.5 mL of acidic isopropanol (0.04 M HCl/isopropanol). The absorbance was measured at 570 nm. Cell reduction ability was expressed as a percentage of untreated control cells.

T1 sequence (P05067 672-713 limits assumed): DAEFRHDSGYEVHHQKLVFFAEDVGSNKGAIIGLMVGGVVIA

COc1cc(-c2nc3ccccc3s2)ccc1OCC(=O)NCC(O)CNc1c2c(nc3cc(Cl)ccc13)CCCC2 (stereo not shown) [compound 19, 2-(4-(Benzo[d]thiazol-2-yl)-2-methoxyphenoxy)-N-(3-((6-chloro-1,2,3,4-tetrahydroacridin-9-yl)amino)-2-hydroxypropyl)acetamide]
Inhibition of Aβ-self-aggregation (%) (Aβ1–42 self-aggregation; 40 µM): 31.3% | inhibition at 40 µM (Aβ1–42 self-aggregation): ~31% | Highest non-toxic concentration selected (SH-SY5Y cells): 1 µM

COc1cc(-c2nc3ccccc3s2)ccc1OCC(=O)NCCNc1c2c(nc3cc(Cl)ccc13)CCCC2 [compound 15, 2-(4-(Benzo[d]thiazol-2-yl)-2-methoxyphenoxy)-N-(2-((6-chloro-1,2,3,4 tetrahydroacridin-9-yl)amino)ethyl)acetamide]
inhibition at 40 µM (Aβ1–42 self-aggregation): 27% | Highest non-toxic concentration selected (SH-SY5Y cells): 0.2 µM

COc1cc(-c2nc3ccccc3s2)ccc1OCC(=O)NCCCNc1c2c(nc3ccccc13)CCCC2 [compound 16, 2-(4-(Benzo[d]thiazol-2-yl)-2-methoxyphenoxy)-N-(3-((1,2,3,4-tetrahydroacridin-9-yl)amino)propyl)acetamide]
inhibition at 40 µM (Aβ1–42 self-aggregation): 33.7% | Highest non-toxic concentration selected (SH-SY5Y cells): 2.5 µM
